From US20230391786A1, “cGAS INHIBITORS” (Eli Lilly and Company, priority 2022, published 2023)

What was measured:
[1] = tested on: cGAS activity in THP1 cells (IFNb as marker); assay: Cellular assay to measure cGAS activity (IFNb production in PMA-differentiated THP1 cells stimulated by RDG-Adenovirus-GFP); format: cell-based, human; details: Homo sapiens, THP-1, THP1 cells, PMA differentiated, RDG-Adenovirus-GFP 1000 MOI, IFNb AlphaLISA, overnight incubation; read-out: IC50 (μM), Cellular assay for Compounds 95-348
Outline: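 The readout is secreted IFNb measured by AlphaLISA after overnight compound exposure. THP1 cells, differentiated with PMA for 24 h and rested overnight, were infected with RDG-Adenovirus-GFP (1000 MOI, 4 h) before compounds were added; IC50 came from a 4-parameter logistic fit of inhibition against log concentration.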

recombinant human cGAS = recombinant human cGAS (Homo sapiens (Human), UniProt Q8N884); assay: In vitro inhibition assay of cGAS activity (cGAMP production, RapidFire mass spectrometry); format: biochemical; details: 10 nM recombinant human cGAS, 60 nM 75-bp dsDNA, ATP, GTP, room temperature 3 hours, read-out: IC50 (μM), In vitro inhibition assay for Compounds 95-348
Sequence of recombinant human cGAS (Q8N884 whole entry): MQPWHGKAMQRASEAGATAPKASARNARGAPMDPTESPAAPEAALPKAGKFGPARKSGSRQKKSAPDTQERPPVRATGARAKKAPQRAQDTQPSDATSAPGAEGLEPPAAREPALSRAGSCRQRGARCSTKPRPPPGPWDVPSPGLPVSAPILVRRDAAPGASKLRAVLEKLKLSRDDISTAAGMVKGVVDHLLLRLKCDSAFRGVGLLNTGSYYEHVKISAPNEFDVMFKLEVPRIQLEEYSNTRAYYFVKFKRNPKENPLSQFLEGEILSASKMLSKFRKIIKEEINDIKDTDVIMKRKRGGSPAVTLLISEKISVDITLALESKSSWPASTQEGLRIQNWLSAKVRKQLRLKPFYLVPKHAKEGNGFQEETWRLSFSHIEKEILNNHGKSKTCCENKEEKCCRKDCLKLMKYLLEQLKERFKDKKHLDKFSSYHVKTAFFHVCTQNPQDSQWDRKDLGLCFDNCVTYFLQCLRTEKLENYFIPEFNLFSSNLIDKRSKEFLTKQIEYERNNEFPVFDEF
Outline: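 Product cGAMP was quantified by RapidFire MS against a difluoro-cGAMP internal standard after a formic acid quench. The reaction contained 10 nM recombinant full-length human cGAS, 75-bp dsDNA (60 nM), ATP and GTP (50 μM) and ran for 3 h at room temperature. IC50 values came from 4-parameter nonlinear regression.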

| Compound | IC50 [1] [µM] | IC50 (recombinant human cGAS) [µM] |
| --- | --- | --- |
| CC(=O)N1CCOC(CCN2CCn3c(c(-c4cn[nH]c4)c4c(OCC#N)cc(Cl)c(Cl)c43)C2=O)C1 (stereo not drawn) [Example 151, 2-[[2-[2-(4-Acetylmorpholin-2-yl)ethyl]-6,7-dichloro-1-oxo-10-(1H-pyrazol-4-yl)-3,4-dihydropyrazino[1,2-a]indol-9-yl]oxy]acetonitrile] | > 10 | 0.0349 |
| COc1cc2c(-c3cn[nH]c3)cn(-c3cn(CCO)nn3)c2cc1Cl [Example 152, 2-[4-[6-Chloro-5-methoxy-3-(1H-pyrazol-4-yl)indol-1-yl]triazol-1-yl]ethanol] | 1.4 | 0.0142 |
| CC(=O)NCc1[nH]c2c(Cl)c(Cl)cc(OCC#N)c2c1-c1cn[nH]c1 [Example 153, N-((6,7-Dichloro-4-(cyanomethoxy)-3-(1H-pyrazol-4-yl)-1H-indol-2-yl)methyl)acetamide] | 0.807 | 0.00511 |
| O=C(CO)NC1Cc2c(-c3cn[nH]c3)c3ccc(Cl)c(Cl)c3n2C1 (stereo not drawn) [Example 154, N-(5,6-Dichloro-9-(1H-pyrazol-4-yl)-2,3-dihydro-1H-pyrrolo[1,2-a]indol-2-yl)-2-hydroxyacetamide] | 2.41 | 0.026 |
| CC(=O)NC1Cc2c(-c3cn[nH]c3)c3ccc(Cl)c(Cl)c3n2C1 (stereo not drawn) [Example 155, N-(5,6-Dichloro-9-(1H-pyrazol-4-yl)-2,3-dihydro-1H-pyrrolo[1,2-a]indol-2-yl)acetamide] | 7.68 | 0.0273 |
| Clc1ccc2c(-c3cn[nH]c3)c(-c3nnco3)[nH]c2c1Cl [Example 156, 2-[6,7-Dichloro-3-(1H-pyrazol-4-yl)-1H-indol-2-yl]-1,3,4-oxadiazole] | 0.464 | 0.0405 |
| OCc1nnc(-c2[nH]c3c(Cl)c(Cl)ccc3c2-c2cn[nH]c2)o1 [Example 157, (5-(6,7-Dichloro-3-(1H-pyrazol-4-yl)-1H-indol-2-yl)-1,3,4-oxadiazol-2-yl)methanol] | 0.331 | 0.0281 |
| Cc1nnc(-c2[nH]c3c(Cl)c(Cl)ccc3c2-c2cn[nH]c2)s1 [Example 158, 2-(6,7-Dichloro-3-(1H-pyrazol-4-yl)-1H-indol-2-yl)-5-methyl-1,3,4-thiadiazole] | 0.363 | 0.0507 |
| Sc1nnc(-c2[nH]c3c(Cl)c(Cl)ccc3c2-c2cn[nH]c2)[nH]1 [Example 159, 5-[6,7-Dichloro-3-(1H-pyrazol-4-yl)-1H-indol-2-yl]-4H-1,2,4-triazole-3-thiol] | > 10 | 0.019 |
| Clc1ccc2c(-c3cn[nH]c3)c(-c3nnc(C4CC4)o3)[nH]c2c1Cl [Example 160, 2-Cyclopropyl-5-(6,7-dichloro-3-(1H-pyrazol-4-yl)-1H-indol-2-yl)-1,3,4-oxadiazole] | 0.536 | 0.0787 |
| COc1cc(Cl)cc2c1c(-c1cn[nH]c1)cn2-c1cn(CCO)nn1 [Example 161, 2-[4-[6-Chloro-4-methoxy-3-(1H-pyrazol-4-yl)indol-1-yl]triazol-1-yl]ethanol] | 1.01 | 0.0616 |
| O=C(CO)NCc1[nH]c2c(Cl)c(Cl)ccc2c1-c1cn[nH]c1 [Example 162, N-[[6,7-Dichloro-3-(1H-pyrazol-4-yl)-1H-indol-2-yl]methyl]-2-hydroxy-acetamide] | 0.761 | 0.0152 |
| CCC(=O)NCc1[nH]c2c(Cl)c(Cl)ccc2c1-c1cn[nH]c1 [Example 163, N-[[6,7-Dichloro-3-(1H-pyrazol-4-yl)-1H-indol-2-yl]methyl]propanamide] | 2.09 | 0.076 |
| NC(=O)NCc1[nH]c2c(Cl)c(Cl)ccc2c1-c1cn[nH]c1 [Example 164, [6,7-Dichloro-3-(1H-pyrazol-4-yl)-1H-indol-2-yl]methylurea] | 1.34 | 0.0543 |
| O=C(NCc1[nH]c2c(Cl)c(Cl)ccc2c1-c1cn[nH]c1)c1nnco1 [Example 165, N-[[6,7-Dichloro-3-(1H-pyrazol-4-yl)-1H-indol-2-yl]methyl]-1,3,4-oxadiazole-2-carboxamide] | 1.32 | 0.0894 |
